Data from patent US20190390245A1, “CYTOTOXICITY TEST METHOD FOR MEDICAL DEVICE” (ALCON INC., priority 2018, published 2019).
Where two headings read alike, the source gives them in different places.

What was measured:
[1] = test system: L929 cells; experiment: Two layer embedded modified agar overlay cytotoxicity test
Description: The test article meets the ‘pass’ criteria of the test if the biological response is less than or equal to grade 2 (mild).
1×MEMAOM was used as the nutrient supplement agar at 2 mL/well.
B) Two layer embedded modified agar overlay. The test materials were added after the base nutrient agar solidified, and 2.0 mL of L929 (1.8×10^6 cells/mL) cell agar mixture described above was added on top of the test materials to fully cover the test materials with a final cell concentration of 3.6×10^6 cells/well. After 24 hours of incubation, cells were examined as described in ISO/USP agar overlay method.
C) For the extended study duration, cells were prepared as described in A) and B). Reference material A and no treatment were evaluated for up to 72-hour incubation.
D) two layer modified and embedded modified agar overlay for liquid materials. Paper filter discs (100 μL of either 100% Ethanol or 2000 ppm BAK) were prepared as described in A) and B).

[2] = test system: L929 cells; experiment: ISO/USP (traditional) agar overlay cytotoxicity test; type: cell-based, Mouse
Description: The ISO 10993-5 (2009) qualitative agar diffusion/overlay assay is appropriate for high density materials and liquids. This assay is conducted by adding a thin layer of nutrient-supplemented agar over the near confluent monolayer of L929 cells, and the test material (a solid sample, or an extract of the test material or liquid placed on filter paper) is placed on top of the agar layer. The cushioning effect of an agar layer protects the L929 cells from the potential mechanical damage by the test material's movement. Cells are examined after 24-hours incubation for signs of toxicity and stained with neutral red dye to differentiate between the viable, stressed or lysed cells. Cytotoxic leachates diffuse into the cell layer through the agar, and toxicity is indicated by a loss of viable cells around the test device as evidenced by area devoid of stain under and around the test material. The disadvantage of agar overlay assay is that potential cytotoxic leachates may bind to the agar and not be able to diffuse across the plate as compared to the liquid medium; thus, the cells are not fully exposed to the test substance.

[3] = test system: L929 cells; conditions: concentration known to be toxic to the rabbit eyes; Bruinink and Luginbuehl, 2012; cited from earlier work

Compound	Color zone formation (observation), Two layer embedded Modified Agar Overlay ([1]; Table 4, liquids, 100 μL on paper filter)	Grade, color zone formation, ISO/USP Agar Overlay [2]	Color zone formation (observation), Two layer embedded Modified Agar Overlay [1]	Cytotoxicity responses, traditional agar overlay method (previous observations) [3]
CCO [Ethanol, ethanol]	no zone	–	–	–
Benzalkonium Chloride [BAK]	–	Grade 0	no zone	failed to show cytotoxicity responses
